Measured values published in paper PMC12680861, “Comparative analysis of LJ-4378 and tirzepatide in mouse models of obesity and weight regain” (Archives of Pharmacal Research, 2025).

Legend:
CYP3A4 = CYP3A4 (Homo sapiens, UniProt P08684); test: CYP enzyme inhibition in pooled human liver microsomes (midazolam substrate); conditions: at 10 µM, 15 min
Protocol: Cytochrome 450 (CYP) enzyme inhibition was evaluated using pooled human liver microsomes (Corning, #452117). […] Substrates and corresponding metabolites for each CYP isoform were as follows: phenacetin and acetaminophen for CYP1A2 (Sigma Aldrich, #77440 and A7085, respectively), diclofenac and 4'-hydroxydiclofenac for CYP2C9 (Sigma Aldrich, D6899; TRC, H825225), S-mephenytoin and 4'-hydroxymephenytoin for CYP2C19 (Sigma Aldrich, UC175; Santacruz, sc210197), dextromethorphan and dextrorphan for CYP2D6 (Sigma Aldrich, #81091 and UC205), and midazolam and 1'-hydroxymidazolam for CYP3A4 (KFDA; Sigma Aldrich, UC430).
Samples were preincubated at 37 °C for 5 min, and the reaction was initiated by the addition of the NADPH regeneration system, followed by incubation at 37 °C for 15 min. The reaction was terminated by adding acetonitrile containing the internal standard, and centrifuged at 15,000 rpm for 5 min at 4 °C. The supernatant was analyzed by LC–MS/MS using a Nexera XR system (Shimadzu, Japan) coupled with a TSQ Vantage mass spectrometer (Thermo, USA). […] Metabolites were quantified in multiple reaction monitoring (MRM) mode with Xcalibur software (version 4.4).
All experiments were performed in duplicate with variability ≤ 15%. The percent activity of each CYP enzyme was calculated based on metabolite formation relative to the no-inhibitor control.

HFD-fed mice = test: Adipose tissue (gWAT) and systemic inflammation in HFD-fed mice; format: in vivo, C57BL/6 J male mice; conditions: for serum TNF-α levels: ELISA; for macrophage accumulation in gWAT (F4/80 protein, crown-like structures): compared with HFD controls
Protocol: To evaluate the anti-obesity effect in vivo, mice fed either NCD or HFD for 10 weeks were subsequently treated for up to 4 weeks. To control for injection route-related variables, all mice received both intraperitoneal (I.P.) and subcutaneous (S.C.) injections. The administration were as follows: LJ-4378 treated mice received LJ-4378, which was synthesized in our laboratory at > 95% purity (1 mg/kg/day, I.P.) (Hou et al. [2010]; Kim et al. [2022]) along with the vehicle for TZP (40 mM Tris–HCl, pH 8, S.C.); TZP treated mice received TZP (Samms et al. [2021]; Kim et al. [2022]) (LY3298176, MedChemExpress, Monmouth Junction, NJ, USA) (10 nmol/kg/day, S.C.) along with the vehicle for LJ-4378 (0.2% DMSO, I.P.); vehicle control mice received both vehicles (0.2% DMSO, I.P. and 40 mM Tris–HCl, pH 8, S.C.)
The serum TNF-α level was measured using TNF-alpha ELISA MTA00B (R&D system) in accordance with the manufacturer’s protocol.
For protein extraction, we utilized PRO-RERP Protein Extraction Solution (17081, iNtRON Biotechnology, Gyeonggi-do, Korea), supplemented with […] Protease Inhibitor (S8820, Sigma, St. Louis, MO, USA) and PhosSTOP phosphatase inhibitor (#4906837001, Roche, Basel, Switzerland). Protein concentrations were determined using the Pierce BCA protein assay Kit (#23227, Thermo Fisher, Waltham, Massachusetts, USA) by measuring absorbance at 562 nm with a MultiSkan GO spectrophotometer (Thermo Fisher). The quantified proteins were loaded and separated in 12% SDS-PAGE gels and transferred to polyvinylidene difluoride (PVDF) membranes (Bio-Rad, Hercules, CA, USA). Membranes were blocked in 5% bovine serum albumin or skim milk in Tris-buffered saline with 0.1% Tween 20 (TBST) for 1 h, followed by overnight incubation with primary antibodies. The next day, membranes were washed 3 times with TBST and incubated for 1 h with horseradish peroxidase (HRP)-conjugated secondary antibody: Goat anti-rabbit (1:3000, #31460, Thermo Fisher) and Goat anti-Mouse IgG (1:3000, 115–035-174, Jackson ImmunoResearch). After secondary antibody incubation, membranes were washed 3 times with TBST and detected with the Fusion Solo chemiluminescence imaging system (Vilber Lourmat, France). EvolutionCapt (version 17.03) software and the ImageJ (National Institutes of Health, Bethesda, MD, USA) program were used for analysis and to quantify the protein level.
RT-qPCR was conducted according to the method (Cho et al. [2022]). The tissue samples were lysed in TRIzol (#15596018, Thermo Fisher), and the total RNA was extracted. The extracted RNA was synthesized into cDNA using the cDNA Reverse Transcription Kit (Applied Biosystems, Waltham, MA, USA). mRNA levels were quantified using iQ SYBR Green Supermix on the CFX Connect Real-time system (Bio-rad). Relative expression levels of each gene were calculated using the […] method, with the reference housekeeping gene as follows: Peptidylprolyl isomerase A (Ppia) for adipose tissue and glyceraldehyde-3-phosphate dehydrogenase (Gapdh) for hypothalamus.
Adipose tissues were fixed in 10% formalin (HT50128, Sigma) for 2 days and made into paraffin slides. The deparaffinized sections were stained with ClearView Staining Hematoxylin (MA010081, BBC Biochemical, Mount Vernon, WA, USA) and Eosin Y Alcoholic (#3610, BBC Biochemical) solution. The crown-like structure formation of gonadal white adipose tissue (gWAT) and triglyceride (TG) accumulation in the liver are observed using hematoxylin and eosin staining on paraffin slides. The images were captured using Nikon Elements (NIS BR Analysis ver 5.10.00).

[1] = Tissue partition coefficient extrapolated from rat via plasma unbound fractions
Protocol: When calculating KP,T for LJ-4378 in […], Eq. (1) was used:1 KP,T=CT,ss/Cp,ss where CT,ss and Cp,ss represented the tissue and plasma concentrations at 270 min after the initiation of LJ-4378 infusion. In addition, under the free-drug hypothesis, the KP,T can be expressed as the ratio of the unbound fractions in plasma ( fup ) and tissue ( fu,T ) [Eq. (2)]. Given similar interspecies values of tissue unbound fraction (Poulin and Theil [2000]), the rat KP,T values were extrapolated to those in mice and humans using the following Eq. (3):2 KP,T=fup/fu,T 3 KP,T,extrapolated=KP,T,rat×fup/fup,rat

CYP3A4, sequence (P08684 whole entry, canonical isoform): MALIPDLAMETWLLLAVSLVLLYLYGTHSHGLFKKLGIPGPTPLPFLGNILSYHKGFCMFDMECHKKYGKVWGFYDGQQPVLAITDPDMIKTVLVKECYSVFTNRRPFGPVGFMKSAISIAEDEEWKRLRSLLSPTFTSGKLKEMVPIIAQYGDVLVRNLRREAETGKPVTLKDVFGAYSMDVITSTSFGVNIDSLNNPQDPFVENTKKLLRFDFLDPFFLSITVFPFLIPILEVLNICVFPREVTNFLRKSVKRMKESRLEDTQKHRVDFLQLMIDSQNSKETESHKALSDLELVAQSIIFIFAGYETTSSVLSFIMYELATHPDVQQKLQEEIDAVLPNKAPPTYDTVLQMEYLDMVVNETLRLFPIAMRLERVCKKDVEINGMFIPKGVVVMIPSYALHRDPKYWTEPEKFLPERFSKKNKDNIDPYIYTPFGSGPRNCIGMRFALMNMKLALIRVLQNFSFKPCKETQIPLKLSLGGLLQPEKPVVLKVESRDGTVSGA

| Molecule | % of control activity CYP3A4 (CYP3A4) [%] | serum TNF-α levels (HFD-fed mice; HFD-fed mice) | Adgre1 and Tnf-α expression in gWAT (HFD-fed mice; HFD-fed mice, RT-qPCR) | M2-like macrophage markers (Arg1, Clec10a, Chil3, Il-10) in gWAT (HFD-fed mice; HFD-fed mice, RT-qPCR) | macrophage accumulation in gWAT (F4/80 protein, crown-like structures) (HFD-fed mice) | Steady state tissue partition coefficient (KP,T), Adipose ([1]; Humans (extrapolated)) | Steady state tissue partition coefficient (KP,T), Brain ([1]; Humans (extrapolated)) | Steady state tissue partition coefficient (KP,T), Liver ([1]; Humans (extrapolated)) | Steady state tissue partition coefficient (KP,T), Lungs ([1]; Humans (extrapolated)) | Steady state tissue partition coefficient (KP,T), Adipose ([1]; Mice (extrapolated)) | Steady state tissue partition coefficient (KP,T), Brain ([1]; Mice (extrapolated)) | Steady state tissue partition coefficient (KP,T), Liver ([1]; Mice (extrapolated)) | Steady state tissue partition coefficient (KP,T), Lungs ([1]; Mice (extrapolated)) |
| --- | --- | --- | --- | --- | --- | --- | --- | --- | --- | --- | --- | --- | --- |
| CCCCC#Cc1nc(N)c2ncn([C@@H]3SC[C@@H](O)[C@H]3O)c2n1 [LJ-4378] | 96.9 | reduced | remarkably suppressed | selectively upregulated | significantly reduced | 0.200 | 0.0443 | 1.04 | 0.540 | 0.197 | 0.0437 | 1.03 | 0.533 |
| Tirzepatide [TZP, reference compound] | – | reduced | remarkably suppressed | – | significantly reduced | – | – | – | – | – | – | – | – |
